Data reported in ChEMBL document CHEMBL2434821, “New phenstatin-fatty acid conjugates: synthesis and evaluation” (Bioorg Med Chem Lett, 2013).

Assay: Cytotoxicity against human KB-3-1 cells assessed as cell survival at 0.5 uM after 72 hrs by MTT assay relative to control
Details: KB 3-1, 72 h

Compound: CCCCC/C=C\C/C=C\CCCCCCCC(=O)Oc1cc(C(=O)c2cc(OC)c(OC)c(OC)c2)ccc1OC
- cell survival at 0.5 µM: 20%
